In the supplement of paper PMC10307832:

Legend:
Assay in all cases: relative viability (nuclei count vs DMSO), 5 days (fraction); higher = more cells survive
CUDC-101 + Tozasertib = compound: C#Cc1cccc(Nc2ncnc3cc(OC)c(OCCCCCCC(=O)NO)cc23)c1 [CUDC-101] + Cc1cc(Nc2cc(N3CCN(C)CC3)nc(Sc3ccc(NC(=O)C4CC4)cc3)n2)n[nH]1 [Tozasertib] (partner 0.1 µM)
Method in brief: (§1)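 Relative viability divides the nuclei count in treated wells by that in vehicle wells. Lung cancer cell lines were seeded in 1536-well plates, dosed by pin tool the next day, and fixed and stained after 5 days in one step with final 0.05% Triton X-100, 1% formaldehyde and 1 ug/ml Hoechst. Dosing was a single drug or a fixed anchor-drug dose plus five library-drug doses (not always all listed) in √10 steps, and values are medians of duplicate plates imaged at 4×.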

Vandetanib + Alpelisib = compound: COc1cc2/c(=N/c3ccc(Br)cc3F)nc[nH]c2cc1OCC1CCN(C)CC1 [Vandetanib] + Cc1nc(NC(=O)N2CCC[C@H]2C(N)=O)sc1-c1ccnc(C(C)(C)C(F)(F)F)c1 [Alpelisib] (partner 2 µM)
Method in brief: as §1

Vandetanib + Luminespib = compound: COc1cc2/c(=N/c3ccc(Br)cc3F)nc[nH]c2cc1OCC1CCN(C)CC1 [Vandetanib] + CCNC(=O)c1noc(-c2cc(C(C)C)c(O)cc2O)c1-c1ccc(CN2CCOCC2)cc1 [Luminespib] (partner 0.01 µM)
Method in brief: as §1

NVP-TAE684 + OSI-027 = compound: COc1cc(N2CCC(N3CCN(C)CC3)CC2)ccc1Nc1ncc(Cl)c(Nc2ccccc2S(=O)(=O)C(C)C)n1 [NVP-TAE684] + COc1cccc2cc(-c3nc([C@H]4CC[C@H](C(=O)O)CC4)n4ncnc(N)c34)[nH]c12 [OSI-027] (partner 0.5 µM)
Method in brief: as §1

Row | Cell Line | relative viability (CUDC-101 + Tozasertib; first compound 0.01 µM) | relative viability (CUDC-101 + Tozasertib; first compound 0.03162 µM) | relative viability (CUDC-101 + Tozasertib; first compound 0.1 µM) | relative viability (CUDC-101 + Tozasertib; first compound 0.3162 µM) | relative viability (CUDC-101 + Tozasertib; first compound 1 µM) | relative viability (Vandetanib + Alpelisib; first compound 0.02 µM) | relative viability (Vandetanib + Alpelisib; first compound 0.06325 µM) | relative viability (Vandetanib + Alpelisib; first compound 0.2 µM) | relative viability (Vandetanib + Alpelisib; first compound 0.6325 µM) | relative viability (Vandetanib + Alpelisib; first compound 2 µM) | relative viability (Vandetanib + Luminespib; first compound 0.02 µM) | relative viability (Vandetanib + Luminespib; first compound 0.06325 µM) | relative viability (Vandetanib + Luminespib; first compound 0.2 µM) | relative viability (Vandetanib + Luminespib; first compound 0.6325 µM) | relative viability (Vandetanib + Luminespib; first compound 2 µM) | relative viability (NVP-TAE684 + OSI-027; first compound 0.2 µM) | relative viability (NVP-TAE684 + OSI-027; first compound 0.6325 µM) | relative viability (NVP-TAE684 + OSI-027; first compound 2 µM)
1 | NCI-H727 | 0.56 | 0.556 | 0.56 | 0.673 | 0.407 | 0.619 | 0.56 | 0.405 | 0.496 | 0.322 | 0.591 | 0.349 | 0.247 | 0.252 | 0.316 | 0.68 | 0.411 | 0.372
2 | NCI-H838 | 0.265 | 0.266 | 0.329 | 0.265 | 0.264 | 0.98 | 0.957 | 0.991 | 1.04 | 1.05 | 0.354 | 0.353 | 0.145 | 0.333 | 0.278 | 0.389 | 0.324 | 0.175
3 | NCI-H1944 | 0.268 | 0.213 | 0.275 | 0.236 | 0.17 | 0.781 | 0.81 | 0.807 | 0.757 | 0.744 | 0.811 | 0.743 | 0.745 | 0.676 | 0.651 | 0.428 | 0.36 | 0.278
4 | SK-LU-1 | 0.336 | 0.322 | 0.367 | 0.309 | 0.269 | 1.06 | 0.594 | 1.02 | 0.926 | 0.758 | 0.202 | 0.204 | 0.156 | 0.196 | 0.217 | 0.31 | 0.37 | 0.181
5 | LC-2-ad | 0.445 | 0.47 | 0.449 | 0.326 | 0.276 | 0.815 | 0.876 | 0.898 | 0.802 | 0.498 | 0.987 | 0.996 | 1.09 | 1 | 0.616 | 0.804 | 0.673 | 0.317
6 | LOU-NH91 | 0.703 | 0.548 | 0.472 | 0.411 | 0.305 | 0.753 | 0.619 | 0.539 | 0.551 | 0.481 | 0.33 | 0.306 | 0.294 | 0.369 | 0.32 | 0.746 | 0.674 | 0.571
7 | NCI-H2009 | 0.8 | 0.695 | 0.778 | 0.801 | 0.639 | 1.16 | 1.07 | 1.2 | 1.15 | 1.15 | 1.04 | 0.998 | 0.17 | 1.07 | 1.03 | 0.603 | 0.449 | 0.302
8 | NCI-H647 | 0.235 | 0.338 | 0.266 | 0.223 | 0.211 | 1.03 | 1.1 | 1.11 | 1.1 | 0.786 | 0.334 | 0.337 | 0.0629 | 0.283 | 0.285 | 0.692 | 0.58 | 0.417
9 | NCI-H1666 | 0.594 | 0.564 | 0.676 | 0.565 | 0.507 | 0.89 | 0.764 | 0.793 | 0.668 | 0.401 | 1.05 | 0.981 | 0.405 | 0.949 | 0.823 | 0.901 | 0.767 | 0.641
10 | A-427 | 0.211 | 0.227 | 0.219 | 0.205 | 0.165 | 0.951 | 1.01 | 1.11 | 1.06 | 1.1 | 0.892 | 0.822 | 0.927 | 1.08 | 0.926 | 0.548 | 0.396 | 0.285
11 | NCI-H2170 | 0.632 | 0.698 | 0.753 | 0.62 | 0.345 | 0.782 | 0.799 | 0.746 | 0.805 | 0.781 | 0.715 | 0.606 | 0.689 | 0.616 | 0.823 | 0.703 | 0.579 | 0.63
12 | EBC-1 | – | – | – | – | – | 0.81 | 0.784 | 0.862 | 0.809 | 0.746 | – | – | – | – | – | – | – | –
13 | HCC-366 | 0.127 | 0.111 | 0.0975 | 0.111 | 0.0886 | 0.44 | 0.289 | 0.328 | 0.528 | 0.226 | – | – | – | – | – | 1.15 | 0.772 | 0.401
14 | NCI-H2342 | 0.592 | 0.55 | 0.474 | 0.437 | 0.453 | – | – | – | – | – | 0.757 | 0.71 | 0.716 | 0.754 | 0.651 | – | 0.585 | 0.34
15 | SW 900 | 0.471 | 0.633 | 0.566 | 0.526 | 0.519 | – | – | – | – | – | 0.19 | 0.17 | 0.195 | 0.204 | 0.175 | 0.536 | 0.425 | 0.703
16 | HCC-78 | 0.401 | 0.405 | 0.36 | 0.316 | 0.184 | 0.346 | 0.32 | 0.337 | 0.321 | 0.288 | – | – | – | – | – | 0.339 | 0.254 | 0.348
17 | IA-LM | – | – | – | – | – | 0.588 | 0.783 | 0.791 | 0.961 | 0.811 | – | – | – | – | – | – | – | –
18 | NCI-H522 | 0.602 | 0.53 | 0.539 | 0.528 | 0.366 | – | – | – | – | – | 1.3 | 1.17 | 1.11 | 1.18 | 0.96 | – | 0.702 | 0.554
19 | NCI-H1299 | – | – | – | – | – | 0.956 | 0.997 | 1.07 | 1.09 | 1.04 | – | – | – | – | – | – | – | –
20 | NCI-H1623 | 0.406 | 0.379 | 0.389 | 0.356 | 0.272 | – | – | – | – | – | 0.504 | 0.577 | 0.581 | 0.521 | 0.436 | 0.337 | 0.402 | 0.34
21 | NCI-H1563 | – | – | – | – | – | 0.852 | 0.958 | 0.88 | 0.904 | 0.916 | 0.552 | 0.53 | 0.515 | 0.518 | 0.473 | 0.736 | 0.678 | 0.596
22 | NCI-H1648 | 0.64 | – | 0.636 | 0.362 | 0.221 | – | – | – | – | – | – | – | – | – | – | 0.255 | 0.226 | 0.216
23 | A549 | – | – | – | – | – | 0.686 | 0.698 | 0.613 | 0.751 | 0.663 | – | – | – | – | – | – | – | –
24 | Calu-6 | – | – | – | – | – | 0.99 | 1.01 | 0.881 | 0.895 | 0.843 | – | – | – | – | – | – | – | –
